Experimental data published in patent US12208163B2, “Nanostructured lipid gel, method for preparation and use” (CONSEJO SUPERIOR DE INVESTIGACIONES CIENTÍFICAS, priority 2018, dated 2025).

Legend:
[1] = test system: chorioallantoic membrane of a chicken egg; test: Eye irritation assay (HET-CAM test); conditions: for OII (Ocular Irritation Index): calculated from H, V and C times; for Classification: interpretation of OII by Table 2; for Clotting time / Haemorrhage time / Vasoconstriction time: time when change appears, observed for 5 minutes
Text: With the aim of proposing potential uses of the gel in ocular applications, the possible eye irritation of this material was studied by means of a HET-CAM test. The gel formed from HSPC and OA with a molar ratio of 3:1 and a total lipid concentration of 5% was directly applied to the chorioallantoic membrane of a chicken egg due to its similarity to the human cornea. The appearance of vascular lesion or clotting in response to a compound is the basis for using this technique as an indicator of the probability that a substance may harm the mucous membranes, especially the cornea of the human eye, in vitro. In order to execute the method, the egg shell is carefully removed, moistening the membrane with a NaCl solution at 37° C. Next, the NaCl is removed and the white membrane is removed without harming any blood vessel. Next, the gel sample is applied and the appearance of haemorrhage (H), vasoconstriction (V) and/or clotting (C) can be observed for 5 minutes. Lastly, the Ocular Irritation Index (OII) is estimated using the following formula: [formula] H, V and C are the time in seconds when this change appears. If there is no alteration, they are equal to 300. The result obtained from the formula can be interpreted on the basis of Table 2: [table]

[2] = in vitro cutaneous permeation assay on pig skin, fluorescence microscopy; type: in vitro ADME
Protocol: In order to evaluate the potential of these gels as cutaneous application systems, an in vitro permeation assay was conducted on pig skin and observations were made using fluorescence microscopy. Two gels were formed which were applied to the skin surface. One of them was formed by incorporating a red fluorescent probe (Rhodamine B) in order to observe in which areas of the skin the gel-forming phospholipids are retained. In the other gel, a fluorescent green probe (fluorescein) was added in the aqueous phase with the aim of simulating a possible water-soluble active ingredient incorporated to the gel. The gel was gently applied to the skin and left to permeate overnight at 37° C. in a humid environment. Next, the skin was cut into sections and the cells marked in blue in order to distinguish the different skin layers.

Compound | OII (Ocular Irritation Index) [1] | Classification [1] | Clotting time [1] | Haemorrhage time [1] | Vasoconstriction time [1] | skin permeation of fluorescein from aqueous solution ([2]; control, aqueous solution with fluorescein without incorporating the gel) | skin permeation of fluorescein dissolved in the aqueous phase of the gel ([2]; fluorescein in gel, overnight at 37° C., FIG. 6)
CCCCCCCCCCCCOS(=O)(=O)[O-].[Na+] [1% SDS, SDS] | 3.23 | Mildly | 0 s | 110 s | 0 s |  | 
O=C1OC2(c3ccc(O)cc3Oc3cc(O)ccc32)c2ccccc21 [fluorescein] |  |  |  |  |  | only slightly incorporated in the stratum corneum | capable of permeating the skin, covering the entire stratum corneum and epidermis
[Na+].[OH-] [NaOH] | 17.79 | Irritating (9-21) | 20 s | 28 s | 13 s |  | 
